Test results: patent US20110296540A1, “ASSAY FOR SCREENING ANTIDEPRESSANTS” (priority 2008, published 2011)
Where two headings read alike, the source gives them in different places.

How the values were obtained:
[1] = tested on: β-arrestin 2 knock out mice (S129/Sv×C57BL/6); test: Open Field paradigm in β-arrestin 2 knock out mice and littermates; type: in vivo
Text: Adult male C57BL/6Ntac mice were purchased from Taconic Farms (Germantown, N.Y., USA; Lille Skensved, Denmark). Male heterozygous β-arrestin 2+/− and heterozygous female mutant β-arrestin+/− mice (age 4-6 months, 25-30 g body weight) were bred on a mixed S129/Sv×C57BL/6 genetic background raised at the animal facility of Columbia University (New York, USA). […] Food and water were provided ad libitum. Behavioral testing occurred during the light phase between 0700 and 1900 for the OF, NSF and FST, splash test.
For all the studies, control mice received β-CD.
(§1) Motor activity was quantified in four Plexiglas open field boxes 43 times 43 cm2 (MED Associates, Georgia, Vt.). Two sets of 16 pulse-modulated infrared photobeams were placed on opposite walls 2.5-cm apart to record x-y ambulatory movements. Activity chambers were computer interfaced for data sampling at 100-ms resolution. The computer defined grid lines that divided each Open Field into center and surround regions, with each of four lines being 11 cm from each wall. Dependent measures in the center were the total time and the number of entries over a 30-min period of test. The whole session was also divided in 5 periods to analyze the time spent in the center every 5 min. The overall motor activity was quantified as the total distance traveled (cm) or distance traveled in the center divided by total distance traveled.

[2] = tested on: mineralocorticoid receptor
Procedure: Tissue preparation: Animals were sacrificed by cervical dislocation. Selected brain regions were dissected and placed in tubes containing RNAlater (Ambion), incubated at 4 degrees C. overnight and stored at −80 degrees C. until processing.
Brain regions (10-20 mg) were homogenized for 20 sec at medium speed in 1.25 ml lysis/denaturation buffer (Ambion) using an Autogizer™ (Tomtec). Total RNA was isolated from 100-300 ul aliquots of the homogenate using the RNAqueous™ 96 automated kit (Ambion) according to the manufacturer's protocol. A second DNase I digestion was incorporated after elution of the RNA from the Ambion filter plate to remove residual genomic DNA. Digestion was performed for 1 hr at room temperature using DNase I™ (Invitrogen) and the buffer supplied with the enzyme. After inactivation of the DNase with EDTA and heat, the RNA was desalted with a Multiscreen™ filter plate (Millipore) and stored at −80° C. Conversion of total RNA into first strand cDNA was accomplished with Superscript II™ enzyme (Invitrogen) followed by desalting over a Multiscreen plate. Approximately 1 ug of total RNA was used for each cDNA reaction. The yield of cDNA was determined using Quant-iT Oligreen™ reagent (Invitrogen). Prior to the Oligreen assay, total RNA carried over from the cDNA reaction was hydrolyzed with NaOH and heat, followed by neutralization with Tris buffer. This treatment eliminates any contribution of the RNA to the Oligreen signal. The unknown cDNA samples were compared to a standard curve derived using a 18mer oligonucleotide. Replica cDNA plates containing 3 ng of cDNA per well were prepared using an Evolution P3™ workstation (PerkinElmer). Each animal in a given experiment was represented by one well on each plate and each plate always contained the control and treatment groups.
Quantitative PCR (qPCR) was carried out in 25 ul reactions using Full Velocity™ enzyme (Stratagene). Plates were run on either a Stratagene MX3000P™ or an Applied Biosystems 7900 HT instrument. The cycling parameters were set based on recommendations from the enzyme manufacturer. One gene expression profile was analyzed per PCR plate and duplicate plates were run for each gene. Two housekeeping genes, cyclophilin and GAPDH, were included in the gene list and were used to normalize the expression results obtained from the other genes of interest (see data analysis section). The sequences of the primers and probes for each gene are listed in supplemental table 1. Duplicate cycle thresholds (Ct values) were obtained for each gene/region and averaged. The values for cyclophilin and GAPDH were combined and used to normalize the expression values from the other genes by employing the delta Ct method. After converting delta Ct values to percentage, the mean and SEM of each animal group (controls and experimental) was calculated.
Tissue preparation, RNA extraction, DNA preparation and qPCR analysis were described in the materials and methods section. Data analysis and statistics Results from data analyses were expressed as mean±SEM. Data were analyzed using StatView 5.0 software (SAS Institute, Cary, N.C.).

SvEv129 mice = test: Novelty-suppressed feeding test, sham or x-irradiated animals; type: in vivo; settings: 28 d of fluoxetine; sham animals
Procedure: Novelty-suppressed feeding test. […] The floor was covered with ˜2 cm of wooden bedding. Twenty-four hours before behavioral testing, animals were deprived of all food in the home cage. At the time of testing, two food pellets were placed on a piece of round filter paper (12 cm diameter) positioned in the center of the box. The test began immediately after the animal was placed in a corner of the box. The latency to approach the pellet and begin feeding was recorded (maximum time, 5 min). Immediately afterward, the animal was transferred back to its home cage and the amount of food consumed in 5 min was measured. Each mouse was weighed before food deprivation and before testing to assess the percentage of body weight lost.
In the NSF paradigm, conflicting motivations are produced by presenting a food-deprived animal with a reward (food) within the context of a novel, aversive environment. The NSF test is among the few behavioral paradigms that can differentiate chronic versus subchronic responses to antidepressant treatments, using the latency to begin eating as an index of antidepressant/anxiety-like behavior.

C57BL/6Ntac mice = test: Open Field paradigm, chronic corticosterone model; type: in vivo
Text: as §1, with “The procedure described previously was used (Dulawa et al., 2004). Motor” for “Motor”
Mice were anesthetized with ketamine and xylazine (100 mg/ml ketamine; 20 mg/ml xylazine), placed in a stereotaxic frame and exposed to cranial irradiation using a Siemens Stabilopan X-ray system operated at 300 kVp and 20 mA. Animals were protected with a lead shield that covered the entire body, but left unshielded a 3.22×11-mm treatment field above the hippocampus (interaural 3.00 to 0.00) exposed to X-Ray. Dosimetry was done using a Capintec Model PR06G electrometer ionization chamber and Kodak Readypack Radiographic XV films. The corrected dose rate was approximately 1.8 Gy per min at a source to skin distance of 30 cm. The procedure lasted 2 min and 47 sec, delivering a total of 5 Gy. Three 5 Gy doses were delivered on days 1, 4 and 8.

CNCCC(Oc1ccc(C(F)(F)F)cc1)c1ccccc1 (stereo not drawn) [fluoxetine]
total number of entries in the center (Open Field) ([1]; wild-type animals, 4 weeks fluoxetine): increased | time spent in the center (Open Field) ([1]; wild-type animals, 4 weeks fluoxetine 18 mg/kg/day): increased | effect of fluoxetine on time spent in the center (Open Field) ([1]; β-arrestin 2 knock out mice): abolished | total ambulatory distance (Open Field) ([1]; β-arrestin 2 knock out mice): absence of effects | total number of entries in the center (Open Field) ([1]; β-arrestin 2 knock out mice): absence of effects | mineralocorticoid receptor expression ([2]; amygdala): unchanged | mineralocorticoid receptor expression ([2]; hippocampus): unchanged | mineralocorticoid receptor expression ([2]; hypothalamus): unchanged | latency to feed (NSF) (SvEv129 mice): reduced latency to feed | corticosterone-induced anxiety phenotype in the Open Field (time and entries in the center) (C57BL/6Ntac mice; 3-week antidepressant treatment in corticosterone-treated mice, imipramine 40, fluoxetine 18 mg/kg/day): reversed | ambulatory distance (Open Field) (C57BL/6Ntac mice; chronic corticosterone, with or without chronic fluoxetine): abolished | corticosterone-induced decrease of Open Field center parameters (C57BL/6Ntac mice; chronic fluoxetine, regardless of X-irradiation): reversed
